Results from ChEMBL document CHEMBL5113400, “Design, synthesis, and biological evaluation of trizole-based heteroaromatic derivatives as Bcr-Abl kinase inhibitors” (Eur J Med Chem, 2022).

Columns and labels:
[1] = system: K562; assay: Antiproliferative activity against human K562 cells assessed as inhibition of cell growth incubated for 48 hrs by MTT assay; format: functional, cell-based; conditions: K562, 48 h
[2] = system: K562/Adr; assay: Antiproliferative activity against human Adriamycin-resistant K562/Adr cells assessed as inhibition of cell growth incubated for 48 hrs by MTT assay; format: functional, cell-based
[3] = system: K-562R; assay: Antiproliferative activity against human K-562R cells expressing Bcr-Abl T315I mutant assessed as inhibition of cell growth incubated for 48 hrs by MTT assay; format: functional, cell-based
[4] = system: BaF3; assay: Antiproliferative activity against mouse BaF3 cells expressing wild type Bcr-Abl assessed as inhibition of cell growth incubated for 72 hrs by CellTiter-Glo luminescent assay; format: functional, cell-based; conditions: BaF3, 72 h
[5] = system: BaF3; assay: Antiproliferative activity against mouse BaF3 cells assessed as inhibition of cell growth incubated for 72 hrs by CellTiter-Glo luminescent assay; format: functional, cell-based; conditions: BaF3, 72 h
[6] = target: Bcr/Abl fusion protein (Homo sapiens, UniProt P00519); assay: Inhibition of wild type Bcr-Abl (unknown origin) incubated for 1 hr in presence of ATP by ADP-Glo kinase assay; format: protein assay
[7] = target: Bcr/Abl fusion protein (Homo sapiens, UniProt P00519, T315I); assay: Inhibition of Bcr-Abl T315I mutant (unknown origin) incubated for 1 hr in presence of ATP by ADP-Glo kinase assay; format: protein assay
[8] = system: BaF3; assay: Antiproliferative activity against mouse BaF3 cells expressing Bcr-Abl T315I mutant assessed as inhibition of cell growth at 30 uM incubated for 72 hrs by CellTiter-Glo luminescent assay; format: functional

Row | Compound | IC50 [1] [nM] | IC50 [2] [nM] | IC50 [3] [nM] | IC50 [4] [nM] | IC50 [5] [nM] | IC50 [6] [nM] | IC50 [7] [nM] | inhibition at 30 µM [8] [%]
1 | Cc1ccc(NC(=O)c2ccc(CN3CCN(C)CC3)cc2)cc1Nc1nccc(-c2cccnc2)n1 [IMATINIB] | 1100 | 13500 | 93000 | 230 | 10000 | – | – | –
2 | CC(=O)Nc1n[nH]c2cc(-c3cn([C@@H]4CN[C@H](C(=O)Nc5ccc(Cl)cc5Cl)C4)nn3)ccc12 | 2090 | 1230 | – | – | – | 3.15 | 135 | 25.5
